# Source: ChEMBL document CHEMBL2380255, “Dual targeting of adenosine A(2A) receptors and monoamine oxidase B by 4H-3,1-benzothiazin-4-ones” (J Med Chem, 2013)
# Activity calls are given as the source filed them. No cut-off for these calls is given here.
# How the values were obtained:
# Homo sapiens [1] = species: Homo sapiens; assay: Selectivity ratio of Ki for human recombinant adenosine A1 receptor to Ki for human recombinant adenosine A2A receptor
# [2] = Selectivity ratio of Ki for adenosine A2A receptor in rat brain striatal membranes to Ki for human recombinant adenosine A2A receptor; assay type: cell membranes; details: Membrane
# Homo sapiens [3] = species: Homo sapiens; assay: Selectivity ratio of Ki for human recombinant adenosine A2B receptor to Ki for human recombinant adenosine A2A receptor
# Adenosine receptor A1 [4] = biological target: T1, Adenosine receptor A1 (Rattus norvegicus, UniProt P25099); assay: Displacement of [3H]CCPA from adenosine A1 receptor in rat brain cortical membranes after 90 mins by liquid scintillation counting analysis; assay type: cell membranes, Membrane
# T1 sequence (P25099 whole entry): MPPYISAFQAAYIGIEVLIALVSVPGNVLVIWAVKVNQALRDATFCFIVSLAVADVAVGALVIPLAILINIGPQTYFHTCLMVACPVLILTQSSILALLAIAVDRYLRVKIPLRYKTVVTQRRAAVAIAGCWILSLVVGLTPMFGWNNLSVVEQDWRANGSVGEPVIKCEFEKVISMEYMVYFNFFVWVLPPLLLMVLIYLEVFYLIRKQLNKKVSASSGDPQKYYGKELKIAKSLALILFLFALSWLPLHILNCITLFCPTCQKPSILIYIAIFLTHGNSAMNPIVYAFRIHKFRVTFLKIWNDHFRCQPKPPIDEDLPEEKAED
# [5] = biological target: T2, Amine oxidase [flavin-containing] B (Homo sapiens, UniProt P27338); assay: Reversible inhibition of human MAO-B using p-tyramine as substrate at IC80 incubated for 22 mins followed by substrate addition measured for 5 hrs by fluorescence assay
# T2 sequence (P27338 whole entry): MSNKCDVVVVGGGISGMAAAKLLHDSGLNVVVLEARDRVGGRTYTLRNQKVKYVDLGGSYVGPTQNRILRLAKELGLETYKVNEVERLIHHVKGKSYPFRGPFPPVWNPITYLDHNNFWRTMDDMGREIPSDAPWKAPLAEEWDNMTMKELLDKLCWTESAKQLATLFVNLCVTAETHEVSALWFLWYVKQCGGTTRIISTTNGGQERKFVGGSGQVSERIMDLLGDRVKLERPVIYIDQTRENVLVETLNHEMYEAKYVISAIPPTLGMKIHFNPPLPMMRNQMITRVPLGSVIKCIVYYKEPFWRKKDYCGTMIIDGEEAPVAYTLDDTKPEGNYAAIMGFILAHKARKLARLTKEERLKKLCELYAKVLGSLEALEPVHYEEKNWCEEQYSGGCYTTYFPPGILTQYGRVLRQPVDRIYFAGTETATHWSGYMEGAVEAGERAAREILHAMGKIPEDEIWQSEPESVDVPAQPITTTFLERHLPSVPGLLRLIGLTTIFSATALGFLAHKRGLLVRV
# [6] = biological target: T2, Amine oxidase [flavin-containing] B; assay: Inhibition of recombinant human MAO-B expressed in baculovirus-infected insect cells using p-tyramine as substrate incubated for 30 mins prior to substrate addition measured for 45 mins by amplex red reagent-based microplate fluorescence reader analysis; assay type: cell-based
# Adenosine receptor A2a [7] = biological target: T3, Adenosine receptor A2a (Homo sapiens, UniProt P29274); assay: Displacement of [3H]MSX2 from human recombinant adenosine A2A receptor expressed in CHO cells after 30 mins by liquid scintillation counting analysis; assay type: cell-based
# T3 sequence (P29274 whole entry): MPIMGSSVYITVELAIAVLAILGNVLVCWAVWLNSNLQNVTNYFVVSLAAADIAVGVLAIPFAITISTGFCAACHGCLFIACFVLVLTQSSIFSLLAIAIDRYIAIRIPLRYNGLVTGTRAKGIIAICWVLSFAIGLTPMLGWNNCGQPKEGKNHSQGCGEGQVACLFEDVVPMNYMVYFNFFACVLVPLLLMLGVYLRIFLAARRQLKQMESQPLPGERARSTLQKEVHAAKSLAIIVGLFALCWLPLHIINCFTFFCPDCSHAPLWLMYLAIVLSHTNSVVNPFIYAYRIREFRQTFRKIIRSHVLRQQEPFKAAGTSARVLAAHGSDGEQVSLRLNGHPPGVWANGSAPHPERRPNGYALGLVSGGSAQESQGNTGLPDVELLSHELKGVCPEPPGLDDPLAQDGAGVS
# Adenosine receptor A1 [8] = biological target: T4, Adenosine receptor A1 (Homo sapiens, UniProt P30542); assay: Displacement of [3H]CCPA from human recombinant adenosine A1 receptor expressed in CHO cells after 90 mins by liquid scintillation counting analysis; assay type: cell-based
# T4 sequence (P30542 whole entry): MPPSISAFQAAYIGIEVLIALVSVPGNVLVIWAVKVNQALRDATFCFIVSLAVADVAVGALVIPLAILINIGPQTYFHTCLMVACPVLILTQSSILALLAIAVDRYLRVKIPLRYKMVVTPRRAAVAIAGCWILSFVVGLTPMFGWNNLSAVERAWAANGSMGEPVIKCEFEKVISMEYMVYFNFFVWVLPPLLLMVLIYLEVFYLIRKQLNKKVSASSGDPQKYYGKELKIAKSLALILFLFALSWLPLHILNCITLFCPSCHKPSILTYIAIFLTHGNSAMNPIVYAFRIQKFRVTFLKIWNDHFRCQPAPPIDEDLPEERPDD
# Adenosine receptor A2b = biological target: T5, Adenosine receptor A2b (Homo sapiens, UniProt P29275); assay: Displacement of [3H]PSB-603 from human recombinant adenosine A2B receptor expressed in CHO cells after 75 mins by liquid scintillation counting analysis; assay type: cell-based
# T5 sequence (P29275 whole entry): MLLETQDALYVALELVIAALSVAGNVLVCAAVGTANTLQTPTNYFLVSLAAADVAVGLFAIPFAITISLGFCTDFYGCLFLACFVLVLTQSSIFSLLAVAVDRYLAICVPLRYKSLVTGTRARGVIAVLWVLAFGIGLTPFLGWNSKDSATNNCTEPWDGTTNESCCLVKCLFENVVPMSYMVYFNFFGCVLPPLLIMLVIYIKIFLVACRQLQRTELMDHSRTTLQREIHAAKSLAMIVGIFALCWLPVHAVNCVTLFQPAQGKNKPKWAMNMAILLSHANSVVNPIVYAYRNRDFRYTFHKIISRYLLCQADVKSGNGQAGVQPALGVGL
# [9] = biological target: T6, Amine oxidase [flavin-containing] B (Rattus norvegicus, UniProt P19643); assay: Inhibition of MAO-B in mitochondria-enriched Sprague-Dawley rat liver fractions using p-tyramine as substrate incubated for 30 mins prior to substrate addition measured for 45 mins by amplex red reagent-based microplate fluorescence reader analysis
# T6 sequence (P19643 whole entry): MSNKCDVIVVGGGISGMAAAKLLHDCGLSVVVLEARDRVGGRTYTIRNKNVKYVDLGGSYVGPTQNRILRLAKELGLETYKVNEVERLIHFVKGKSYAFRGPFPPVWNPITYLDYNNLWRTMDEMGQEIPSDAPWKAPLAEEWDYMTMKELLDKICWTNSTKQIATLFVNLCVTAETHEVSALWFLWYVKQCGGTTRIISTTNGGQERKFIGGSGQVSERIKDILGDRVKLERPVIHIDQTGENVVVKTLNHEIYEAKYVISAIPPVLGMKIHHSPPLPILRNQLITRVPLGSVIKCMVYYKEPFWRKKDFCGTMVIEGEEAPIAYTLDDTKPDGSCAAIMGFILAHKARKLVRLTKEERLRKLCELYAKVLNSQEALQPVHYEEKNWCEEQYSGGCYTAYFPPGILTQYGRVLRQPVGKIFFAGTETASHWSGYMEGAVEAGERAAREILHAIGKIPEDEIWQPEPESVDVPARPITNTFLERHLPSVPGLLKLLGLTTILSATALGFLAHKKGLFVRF
# Homo sapiens [10] = species: Homo sapiens; assay: Selectivity ratio of Ki for human recombinant adenosine A3 receptor to Ki for human recombinant adenosine A2A receptor
# Adenosine receptor A2a [11] = biological target: Adenosine receptor A2a (Rattus norvegicus, UniProt P30543); assay: Displacement of [3H]MSX2 from adenosine A2A receptor in rat brain striatal membranes after 30 mins by liquid scintillation counting analysis; assay type: cell membranes, Membrane
# Adenosine receptor A2a (Rattus norvegicus, UniProt P30543), sequence (P30543 whole entry): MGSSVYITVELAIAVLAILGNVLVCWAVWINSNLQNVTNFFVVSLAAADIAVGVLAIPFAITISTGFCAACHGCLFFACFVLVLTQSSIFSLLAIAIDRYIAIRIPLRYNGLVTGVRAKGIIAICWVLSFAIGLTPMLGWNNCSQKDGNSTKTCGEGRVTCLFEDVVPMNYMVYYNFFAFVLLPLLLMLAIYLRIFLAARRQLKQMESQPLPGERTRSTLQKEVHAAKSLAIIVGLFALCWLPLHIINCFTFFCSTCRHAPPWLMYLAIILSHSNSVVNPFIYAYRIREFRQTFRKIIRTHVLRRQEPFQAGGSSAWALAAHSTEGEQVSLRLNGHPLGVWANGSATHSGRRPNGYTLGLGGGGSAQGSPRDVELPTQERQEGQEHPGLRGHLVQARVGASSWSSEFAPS
# [12] = Selectivity ratio of IC50 for MAO-B in mitochondria-enriched Sprague-Dawley rat liver fractions to IC50 for recombinant human MAO-B
# Adenosine receptor A3 [13] = biological target: T7, Adenosine receptor A3 (Homo sapiens, UniProt P0DMS8); assay: Displacement of [3H]PSB-11 from human recombinant adenosine A3 receptor expressed in CHO cells after 60 mins by liquid scintillation counting analysis; assay type: cell-based
# T7 sequence (P0DMS8 whole entry): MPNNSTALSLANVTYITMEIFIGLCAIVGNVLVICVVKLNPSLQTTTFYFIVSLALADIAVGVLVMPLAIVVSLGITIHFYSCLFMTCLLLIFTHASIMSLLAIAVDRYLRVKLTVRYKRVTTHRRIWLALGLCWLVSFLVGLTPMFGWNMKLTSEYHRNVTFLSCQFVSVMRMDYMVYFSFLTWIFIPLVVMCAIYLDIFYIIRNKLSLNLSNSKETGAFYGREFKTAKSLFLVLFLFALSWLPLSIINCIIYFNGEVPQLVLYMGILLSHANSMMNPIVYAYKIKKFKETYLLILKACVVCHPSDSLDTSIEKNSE
# [14] = Selectivity ratio of Ki for human recombinant adenosine A1 receptor to Ki for adenosine A1 receptor in rat brain cortical membranes; assay type: cell membranes; details: Membrane
# Adenosine receptor A1 [15] = biological target: T4, Adenosine receptor A1; assay: Displacement of [3H]CCPA from human recombinant adenosine A1 receptor expressed in CHO cells
# Adenosine receptor A3 [16] = biological target: T7, Adenosine receptor A3; assay: Displacement of [3H]PSB-11 from human recombinant adenosine A3 receptor expressed in CHO cells; assay type: cell-based
# Adenosine receptor A2a [17] = biological target: T3, Adenosine receptor A2a; assay: Antagonist activity at human adenosine A2A receptor expressed in CHO cells assessed as decrease in cAMP accumulation up to 20 uM preincubated for 10 mins measured after 60 mins by liquid scintillation counting analysis in presence of [3H]cAMP; assay type: functional, cell-based
# Adenosine receptor A2a [18] = biological target: T3, Adenosine receptor A2a; assay: Antagonist activity at human adenosine A2A receptor expressed in CHO cells assessed as decrease in NECA-induced cAMP accumulation up to 20 uM incubated for 10 mins followed by NECA induction for 15 mins measured after 60 mins by liquid scintillation counting analysis in presence of [3H]cAMP; assay type: functional, cell-based
# [19] = Stability of the compound in DMSO at 1 mg/ml under daylight condition at 20 degC after 7 days by LC-MS analysis; assay type: physicochemical; details: 168 h
# [20] = biological target: T2, Amine oxidase [flavin-containing] B; assay: Competitive inhibition of human MAO-B using p-tyramine as substrate at 50 to 300 nM using p-tyramine as substrate incubated for 30 mins prior to substrate addition measured for 45 mins by Lineweaver-burk plot analysis; details: 0.75 h
# [21] = biological target: T2, Amine oxidase [flavin-containing] B; assay: Ratio of selegiline IC50 to compound IC50 for recombinant human MAO-B
# [22] = Stability of the compound in DMSO at 1 mg/ml under daylight condition at 20 degC after 24 hrs by LC-MS analysis; assay type: physicochemical
SMILES,Ratio Ki (Homo sapiens [1]),Ratio Ki (Homo sapiens [3]),Ki (Adenosine receptor A1 [4]) [nM],inhibition (INH) [5],IC50 [6] [nM],Ki (Adenosine receptor A2a [7]) [nM],Ki (Adenosine receptor A1 [8]) [nM],Ki (Adenosine receptor A2b) [nM],IC50 [9] [nM],Ratio Ki (Homo sapiens [10]),Ki (Adenosine receptor A2a [11]) [nM],Ratio IC50 [12],Ki (Adenosine receptor A3 [13]) [nM],other results
COc1cccc(CCC(=O)Nc2nc3ccccc3c(=O)s2)c1,21,4,367,Active,95.3,64.9,1370,225,621,3,294,1.4,173,Ratio Ki [2]: > 4
O=C(C/C=C/c1cccc(Cl)c1)Nc1nc2ccccc2c(=O)s1,–,–,11.4,–,> 1000,–,562,> 1000,840,–,≥ 10000,1.4,> 1000,Ratio Ki [14]: < 45
O=C(Nc1nc2ccccc2c(=O)s1)c1ccc(C(=O)N2CCN(Cc3ccc(Cl)cc3)CC2)cc1,100,> 22,–,–,> 10000,44.3,4370,> 1000,–,> 22,488,1.4,> 1000,–
COc1cccc(/C=C/CC(=O)Nc2nc3ccccc3c(=O)s2)c1,–,–,11.2,–,238,91.8,500,≥ 1000,2020,–,317,1.4,115,Ratio Ki [14]: < 45
CCn1c(=O)c2c(nc(/C=C/c3ccc(OC)c(OC)c3)n2C)n(CC)c1=O [ISTRADEFYLLINE],–,–,–,–,–,–,–,–,–,–,–,–,–,Ki (Adenosine receptor A1 [15]): 2830 nM; Ki (Adenosine receptor A3 [16]): > 3 µM
C[C@H](NCc1ccc(OCc2cccc(F)c2)cc1)C(N)=O [SAFINAMIDE],–,–,–,Active,–,–,–,–,25.8,–,–,–,–,–
O=C(CCCc1ccccc1)Nc1nc2ccccc2c(=O)s1,63,> 25,229,Active,34.9,39.5,2500,> 1000,186,> 25,423,1.4,> 1000,Activity (Adenosine receptor A2a [17]): Active; Activity (Adenosine receptor A2a [18]): Active; Stability [19]: Stable; inhibition (INH) [20]: Active
O=C(CCc1ccccc1)Nc1nc2ccccc2c(=O)s1,13,5,422,Active,17.6,80.9,1050,365,42.7,5,103,1.4,390,–
O=C(COc1cccc(Cl)c1)Nc1nc2ccccc2c(=O)s1,–,–,> 10000,–,1.63,–,–,> 1000,661,–,> 10000,400,> 1000,Ratio IC50 [21]: 4
Cn1c(=O)c2c(nc(/C=C/c3cccc(Cl)c3)n2C)n(C)c1=O,–,–,–,–,–,–,> 10000,–,38.5,–,–,–,> 1000,Stability [22]: Unstable
O=C(CCCc1ccccc1)Nc1nc2sccc2c(=O)s1,4,4,35.2,Active,69.7,82.5,364,361,291,12,693,1.4,> 1000,–
